Assay [1] deals with binding of the NKY13 to G-50I. The assay is described as follows: Inhibition of the binding of NKY13 to G-50I by sugar chains. Also noted: species or system mouse. To be noted: inhibition of binding of NKY13 to G-50I by the sugar chain. The method, then: Bovine serum albumin (1%) is added to wells of poly(vinyl chloride) on which, through the mediation of polylysine and glutaraldehyde, is immobilized mucin-type glycopeptide (G-50I) that is isolated from human intestinal cancer cells SW1116 or LS180. After allowing it to stand for 1 hr, the wells are washed, and then a monoclonal antibody NKY13 is added thereto and allowed to react overnight. After washing the wells, Protein A labelled with ^125 I is added, which is allowed to react for 2 hr. After washing the wells, the affinity of NKY13 is measured, taking as index the radioactivity of ^125 I combined with the well.
(§1) Structure of sugar chains recognized by monoclonal antibody NKY13 was investigated on the basis of the inhibition of the binding of the NKY13 to G-50I by the following sugar chains according to the above method. The same test was performed on NS19-9.

The target of the next assay is NS19-9. The assay is described as follows: Inhibition of NS19-9 binding by sugar chains (same test performed on NS19-9). Conditions: read-out: 50% INHIBITION (μM) NS19-9. The method, then: as §1

In the case of `CC(=O)N[C@H]1[C@H](O[C@H]2[C@@H](O)[C@@H](CO)O[C@@H](O[C@H]3[C@H](O)[C@@H](O)C(O)O[C@@H]3CO)[C@@H]2O)O[C@H](CO)[C@@H](O[C@@H]2O[C@@H](C)[C@@H](O)[C@@H](O)[C@@H]2O)[C@@H]1O[C@@H]1O[C@H](CO)[C@H](O)[C@H](O[C@]2(C(=O)O)C[C@H](O)[C@@H](NC(C)=O)[C@H]([C@H](O)[C@H](O)CO)O2)[C@H]1O` (stereo partly shown), the IC50 worked out at 1.86 µM in assay [1] and 11.1 µM on NS19-9.
For the compound `CC(=O)N[C@H]1[C@H](O[C@H]2[C@@H](O)[C@@H](CO)O[C@@H](O[C@H]3[C@H](O)[C@@H](O)C(O)O[C@@H]3CO)[C@@H]2O)O[C@H](CO[C@]2(C(=O)O)C[C@H](O)[C@@H](NC(C)=O)[C@H]([C@H](O)[C@H](O)CO)O2)[C@@H](O)[C@@H]1O[C@@H]1O[C@H](CO)[C@H](O)[C@H](O[C@]2(C(=O)O)C[C@H](O)[C@@H](NC(C)=O)[C@H]([C@H](O)[C@H](O)CO)O2)[C@H]1O` (stereo partly shown), the IC50 in assay [1] came to 320 µM; on NS19-9, 3550 µM.
For `CC(=O)N[C@H]1[C@H](O[C@H]2[C@@H](O)[C@@H](CO)O[C@@H](O[C@H]3[C@H](O)[C@@H](O)C(O)O[C@@H]3CO)[C@@H]2O)O[C@H](CO)[C@@H](O)[C@@H]1O[C@@H]1O[C@H](CO)[C@H](O)[C@H](O[C@]2(C(=O)O)C[C@H](O)[C@@H](NC(C)=O)[C@H]([C@H](O)[C@H](O)CO)O2)[C@H]1O` (stereo partly shown), the results for the IC50 (in assay [1]; at NS19-9) were 320 µM and 3550 µM, respectively.
As for `CC(=O)N[C@H]1[C@H](O[C@H]2[C@@H](O)[C@@H](CO)O[C@@H](O[C@H]3[C@H](O)[C@@H](O)C(O)O[C@@H]3CO)[C@@H]2O)O[C@H](CO[C@]2(C(=O)O)C[C@H](O)[C@@H](NC(C)=O)[C@H]([C@H](O)[C@H](O)CO)O2)[C@@H](O)[C@@H]1O[C@@H]1O[C@H](CO)[C@H](O)[C@H](O)[C@H]1O` (stereo partly shown), the IC50 (in assay [1]; at NS19-9) was greater than 10000 µM each time.
For the compound `CC(=O)N[C@H]1[C@H](O[C@H]2[C@@H](O)[C@@H](CO)O[C@@H](O[C@H]3[C@H](O)[C@@H](O)C(O)O[C@@H]3CO)[C@@H]2O)O[C@H](CO)[C@@H](O[C@@H]2O[C@@H](C)[C@@H](O)[C@@H](O)[C@@H]2O)[C@@H]1O[C@@H]1O[C@H](CO)[C@H](O)[C@H](O)[C@H]1O` (stereo partly shown), the IC50 in assay [1] was greater than 10000 µM; at NS19-9 it was 2320 µM.
In the case of `CC(=O)N[C@H]1[C@H](O[C@H]2[C@@H](O)[C@@H](CO)O[C@@H](O[C@H]3[C@H](O)[C@@H](O)C(O)O[C@@H]3CO)[C@@H]2O)O[C@H](CO)[C@@H](O[C@@H]2O[C@@H](C)[C@@H](O)[C@@H](O)[C@@H]2O)[C@@H]1O[C@@H]1O[C@H](CO)[C@H](O)[C@H](O)[C@H]1O[C@@H]1O[C@@H](C)[C@@H](O)[C@@H](O)[C@@H]1O` (stereo partly shown), the IC50 (in assay [1]; at NS19-9) was greater than 10000 µM each time.
With `CC(=O)N[C@H]1[C@H](O[C@H]2[C@@H](O)[C@@H](CO)O[C@@H](O[C@H]3[C@H](O)[C@@H](O)C(O)O[C@@H]3CO)[C@@H]2O)O[C@H](CO)[C@@H](O)[C@@H]1O[C@@H]1O[C@H](CO)[C@H](O)[C@H](O)[C@H]1O` (stereo partly shown), the IC50 (in assay [1]; on NS19-9) was greater than 10000 µM each time.
With `CC(=O)N[C@H]1[C@H](O[C@H]2[C@@H](O)[C@@H](CO)O[C@@H](O[C@H]3[C@H](O)[C@@H](O)C(O)O[C@@H]3CO)[C@@H]2O)O[C@H](CO)[C@@H](O[C@@H]2O[C@H](CO)[C@H](O)[C@H](O)[C@H]2O)[C@@H]1O[C@@H]1O[C@@H](C)[C@@H](O)[C@@H](O)[C@@H]1O` (stereo partly shown), the IC50 (in assay [1]; on NS19-9) was greater than 10000 µM throughout.
Consider `C[C@@H]1OC(O)[C@@H](O)[C@H](O)[C@@H]1O` (stereo partly drawn) [L-Fucose], for which the IC50 was greater than 10000 µM in assay [1] and 14000 µM on NS19-9.
Turning to `CC(=O)N[C@H]1[C@H]([C@H](O)[C@H](O)CO)OC(O)(C(=O)O)C[C@@H]1O` (stereo partly shown) [NeuAc], the IC50 is 9000 µM in assay [1] and greater than 10000 µM on NS19-9.
Take `O=C(CO)N[C@H]1[C@H]([C@H](O)[C@H](O)CO)OC(O)(C(=O)O)C[C@@H]1O` (stereo partly shown) [NeuGc]: the IC50 in assay [1] was 9000 µM; on NS19-9, greater than 10000 µM.
